Drawing on ChEMBL document CHEMBL1121811, “Synthesis and biological evaluation of certain 2'-deoxy-beta-D-ribo- and -beta-D-arabinofuranosyl nucleosides of purine-6-carboxamide and 4,8-diaminopyrimido[5,4-d]pyrimidine” (1981), this text covers Mean hemagglutination titers and mean survival time for 5 molecules.

Structures are written as SMILES.

Assay [1] deals with Mus musculus. Nature of the assay: Compound was tested for the ability to suppress humoral immune response in mice treated for days -2,-1,and 0 at dose of 100 mg/kg (control = 9.5). The assay is classed as functional.
The subject of assay [2] is Mus musculus. Nature of the assay: Effect of compound on induction of cellular immunity was studied at different dose of 50 mg/kg. (control = 12+/-0.21). In kind it is functional.
Assay [3] has as its system Mus musculus. Nature of the assay: Compound was tested for the ability to suppress humoral immune response in mice treated for days 0,+1,and +2 at dose of 100 mg/kg (control = 10.0).
Assay [4] deals with Mus musculus. Nature of the assay: Compound was tested for the ability to suppress skin-graft rejection in mice treated daily from day of graft transfer until rejection at dose of 75 mg/kg (control = 12+/-0.21).
The test system of assay [5] is Mus musculus. In words: Compound was tested for the ability to suppress skin-graft rejection in mice treated daily from day of graft transfer until rejection at dose of 100 mg/kg (control = 12+/-0.21).
The subject of assay [6] is Mus musculus. In words: Effect of compound on induction of cellular immunity was studied at different dose of 15 mg/kg (control = 12+/-0.2). The assay is classed as functional.
For assay [7], the system named is Mus musculus. In words: Compound was tested for the ability to suppress humoral immune response in mice treated for days 0,+1,and +2 at dose of 25 mg/kg (control = 7.0). The assay is classed as functional.
The subject of assay [8] is Mus musculus. Nature of the assay: Compound was tested for the ability to suppress humoral immune response in mice treated for days -2,-1,and 0 at dose of 25 mg/kg (control = 9.5). The assay is classed as functional.
The test system of assay [9] is Mus musculus. Nature of the assay: Compound was tested for the ability to suppress humoral immune response in mice treated for days 0,+1,and +2 at dose of 100 mg/kg (control = 8.9). In kind it is functional.
Assay [10] relates to Mus musculus. In words: Compound was tested for the ability to suppress humoral immune response in mice treated for days -2,-1,and 0 at dose of 100 mg/kg (control = 8.1). In kind it is functional.
The subject of assay [11] is Mus musculus. Nature of the assay: Compound was tested for the ability to suppress humoral immune response in mice treated for days -2,-1,and 0 at dose of 50 mg/kg (control = 8.1). In kind it is functional.
Assay [12] has as its system Mus musculus. Nature of the assay: Compound was tested for the ability to suppress humoral immune response in mice treated for days 0,+1,and +2 at dose of 50 mg/kg (control = 8.9). In kind it is functional.
Assay [13] has as its system Mus musculus. Nature of the assay: Compound was tested for the ability to suppress humoral immune response in mice treated for days 0,+1,and +2 at dose of 25 mg/kg (control = 8.9).
In assay [14] the test system is Mus musculus. In words: Compound was tested for the ability to suppress humoral immune response in mice treated for days 0,+1,and +2 at dose of 100 mg/kg (control = 6.5). In kind it is functional.
Assay [15] has as its system Mus musculus. In words: Compound was tested for the ability to suppress humoral immune response in mice treated for days 0,+1,and +2 at dose of 100 mg/kg (control = 9.0). In kind it is functional.
For assay [16], the system named is Mus musculus. Nature of the assay: Compound was tested for the ability to suppress humoral immune response in mice treated for days 0,+1,and +2 at dose of 180 mg/kg (control = 9.0). The assay is classed as functional.
Assay [17] relates to Mus musculus. In words: Compound was tested for the ability to suppress humoral immune response in mice treated for days 0,+1,and +2 at dose of 180 mg/kg (control = 9.1). In kind it is functional.
Assay [18] concerns Mus musculus. In words: Compound was tested for the ability to suppress humoral immune response in mice treated for days -2,-1,and 0 at dose of 100 mg/kg (control = 10.3). In kind it is functional.
Assay [19] deals with Mus musculus. In words: Compound was tested for the ability to suppress humoral immune response in mice treated for days -2,-1,and 0 at dose of 50 mg/kg (control = 10.3). The assay is classed as functional.
The test system of assay [20] is Mus musculus. Nature of the assay: Compound was tested for the ability to suppress humoral immune response in mice treated for days 0,+1,and +2 at dose of 50 mg/kg (control = 6.5). In kind it is functional.
The test system of assay [21] is Mus musculus. In words: Compound was tested for the ability to suppress humoral immune response in mice treated for days 0,+1,and +2 at dose of 50 mg/kg (control = 9.0). The assay is classed as functional.

Turning to `Nc1ncnc2c(N[C@@H]3O[C@H](CO)[C@@H](O)[C@@H]3O)ncnc12`, the Mean hemagglutination titers in the assay on Mus musculus [1] came to 8.7; with Mus musculus [3], 11. Besides, the values for the mean survival time in the assay on Mus musculus [2], with Mus musculus [4] and in the assay with Mus musculus [5] were 14, 13 and 16, respectively.

`Nc1ncnc2c(N[C@@H]3O[C@H](CO)[C@@H](O)[C@H]3O)ncnc12`: the mean survival time in the assay with Mus musculus [6] is 21. Also, the figures for the Mean hemagglutination titers in the assay on Mus musculus [7] and in the assay with Mus musculus [8] were 0 and 8.5, respectively.

As to `Nc1ccn([C@@H]2O[C@H](CO)[C@@H](O)[C@@H]2O)c(=O)n1` [CYTARABINE], the Mean hemagglutination titers with Mus musculus [7] worked out at 3.4.

Regarding `Sc1ncnc2nc[nH]c12` [MERCAPTOPURINE ANHYDROUS], the Mean hemagglutination titers in the assay with Mus musculus [9] was determined as 4.1; in the assay on Mus musculus [10], 3.4; with Mus musculus [11], 7.5; in the assay with Mus musculus [12] it was 7.2; with Mus musculus [13], 7.5.

For the molecule `OC[C@H]1O[C@@H](n2cnc3c(S)ncnc32)[C@H](O)[C@@H]1O` [THIOINOSINE], the Mean hemagglutination titers in the assay on Mus musculus [14] is reported as 7.2; in the assay on Mus musculus [15], 7.4; in the assay on Mus musculus [16] it was 6.4; in the assay on Mus musculus [17] it was 8.7; in the assay with Mus musculus [18], 8.3; in the assay on Mus musculus [10], 8.4. For the same molecule, the Mean hemagglutination titers in the assay on Mus musculus [19] was 8.3; with Mus musculus [11] it was 8.5; in the assay with Mus musculus [20] it was 7.2; in the assay on Mus musculus [21] it was 9.1.
